What was measured:
[1] = system: OS-RC-2 (Kidney Carcinoma); experiment: Bliss excess, mean over the matrix (fraction); higher = more synergy
Summary of the method: (§1)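 Cell lines grown in DMEM/F12 or RPMI with 10% FBS were plated in 1536-well plates and held 24 hours at 37°C, 5% CO2 before 72 hours of exposure to two-drug dose matrices, with DMSO typically at 0.2%. CellTiter-Glo 2.0 luminescence gave viability, which was converted to inhibition. Vehicle wells were set to 0 and blank wells to 1. Combination Emax is the second-highest inhibition in the matrix, and Bliss excess is the observed combination effect minus the expected EA + EB − EA·EB, where EA and EB are the single-agent effects.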

[2] = system: VCaP (Prostate Carcinoma); experiment: as above
Summary of the method: as §1

PA-1 (Ovarian Carcinoma) = experiment: as above
Summary of the method: as §1

[3] = system: NCI-H1693 (Lung Adenocarcinoma); experiment: as above
Summary of the method: as §1

[4] = system: HCC1954 (Breast Carcinoma); experiment: as above
Summary of the method: as §1

8-MG-BA (Glioblastoma) = experiment: as above
Summary of the method: as §1

IGR-37 (Melanoma) = experiment: as above
Summary of the method: as §1

[5] = system: NCI-H64 (Small Cell Lung Carcinoma); experiment: as above
Summary of the method: as §1

[6] = system: NCI-H2141 (Small Cell Lung Carcinoma); experiment: as above
Summary of the method: as §1

[7] = system: TT2609-C02 (Thyroid Gland Carcinoma); experiment: as above
Summary of the method: as §1

NY (Osteosarcoma) = experiment: as above
Summary of the method: as §1

[8] = system: A549 (Lung Adenocarcinoma); experiment: as above
Summary of the method: as §1

[9] = system: COLO-320-HSR (Colorectal Carcinoma); experiment: as above
Summary of the method: as §1

LN-405 (Glioblastoma) = experiment: as above
Summary of the method: as §1

[10] = system: PANC-10-05 (Pancreatic Carcinoma); experiment: as above
Summary of the method: as §1

[11] = system: MDST8 (Colorectal Carcinoma); experiment: as above
Summary of the method: as §1

[12] = system: ECC10 (Gastric Carcinoma); experiment: as above
Summary of the method: as §1

FU97 (Gastric Carcinoma) = experiment: combination Emax (second highest fraction inhibited in the dose matrix, 72 h); higher = more inhibition; extreme values may be limits of the assay
Summary of the method: as §1

[13] = system: HCC1954 (Breast Carcinoma); experiment: as above
Summary of the method: as §1

[14] = system: NCI-H1666 (Lung Adenocarcinoma); experiment: as above
Summary of the method: as §1
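Throughout, for Bliss excess, mean over the matrix: after 72 h of two-drug dosing.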

Row | SMILES | Bliss excess [1] | Bliss excess [2] | Bliss excess (PA-1 (Ovarian Carcinoma)) | Bliss excess [3] | Bliss excess [4] | Bliss excess (8-MG-BA (Glioblastoma)) | Bliss excess (IGR-37 (Melanoma)) | Bliss excess [5] | Bliss excess [6] | Bliss excess [7] | Bliss excess (NY (Osteosarcoma)) | Bliss excess [8] | Bliss excess [9] | Bliss excess (LN-405 (Glioblastoma)) | Bliss excess [10] | Bliss excess [11] | Bliss excess [12] | combination Emax (FU97 (Gastric Carcinoma)) | combination Emax [13] | combination Emax [14]
1 | CC1(C)CCC(CN2CCN(c3ccc(C(=O)NS(=O)(=O)c4ccc(NCC5CCOCC5)c([N+](=O)[O-])c4)c(Oc4cnc5[nH]ccc5c4)c3)CC2)=C(c2ccc(Cl)cc2)C1 [Venetoclax] + C[C@@H](Nc1cc(F)cc(F)c1)c1cc(C(=O)N(C)C)cc2c(=O)cc(N3CCOCC3)oc12 [AZD8186] (first compound max 1 µM, 7x7, partner max 3 µM) | -0.0629 | -0.0242 | -0.0401 | -0.034 | -0.0245 | 0.0025 | -0.0335 | 0.0288 | 0.0074 | -0.0251 | 0.0226 | -0.0073 | -0.0052 | -0.0013 | -0.0542 | -0.0304 | 0.0539 | 0.329 | 0.0913 | 0.339
2 | CN(C)CCCOc1ccc(-c2ccc3ncc4c(c3c2)n(C2CCOCC2)c(=O)n4C)cn1 [AZD0156] + CCN(CCO)CCCOc1ccc2c(Nc3cc(CC(=O)Nc4cccc(F)c4)[nH]n3)ncnc2c1 [AZD2811] (first compound max 1 µM, 7x7, partner max 1 µM) | -0.0312 | -0.0484 | 0.038 | -0.0274 | -0.0137 | -0.0033 | -0.0191 | 0.0802 | -0.0327 | -0.0032 | -0.0466 | -0.0431 | -0.0278 | -0.0356 | -0.0169 | 0.0279 | -0.0028 | 0.188 | 0.0882 | 0.211
3 | CN(CCO)CC[C@H](CSc1ccccc1)Nc1ccc(S(=O)(=O)NC(=O)c2ccc(N3CCC([C@@H](O)c4ccccc4-c4ccc(Cl)cc4)CC3)cc2)cc1S(=O)(=O)C(F)(F)F [AZD4320] + C[C@@H](Nc1cc(F)cc(F)c1)c1cc(C(=O)N(C)C)cc2c(=O)cc(N3CCOCC3)oc12 [AZD8186] (first compound max 1 µM, 7x7, partner max 3 µM) | -0.0197 | 0.0559 | 0.0411 | 0.0468 | 0.0622 | -0.0301 | 0.029 | -0.0372 | 0.0326 | 0.0003 | -0.005 | -0.0964 | 0.0504 | -0.0504 | -0.073 | 0.025 | 0.0229 | 0.507 | 0.546 | 0.42
4 | Cc1cc2ncnn2cc1Nc1ncc2c(n1)n(C1CCOCC1)c(=O)n2C [AZD7648] + C[C@@H]1COCCN1C2=NC(=NC(=C2)C3(CC3)[S@](=N)(=O)C)C4=C5C=CNC5=NC=C4 [AZD6738] (first compound max 10 µM, 7x7, partner max 10 µM) | -0.0077 | 0.0437 | -0.0509 | 0.0177 | 0.0568 | 0.0602 | -0.0228 | -0.0003 | 0.0088 | -0.0004 | -0.0052 | -0.0282 | -0.0398 | -0.0881 | 0.0487 | -0.0085 | 0.0582 | 0.42 | 0.568 | 0.354
5 | NC1(C(=O)N[C@@H](CCO)c2ccc(Cl)cc2)CCN(c2ncnc3[nH]ccc23)CC1 [Capivasertib] + COc1nnc2ccc(N3CCC(c4ccc(OCCN5CCN(C)C(=O)[C@H]5C)cc4)CC3)nn12 [AZD5153] (first compound max 10 µM, 7x7, partner max 1 µM) | 0.117 | 0.0181 | -0.0386 | -0.0062 | 0.0641 | -0.0338 | 0.0011 | -0.0011 | 0.0061 | -0.0366 | -0.0649 | -0.0345 | -0.0289 | -0.013 | -0.0114 | 0.105 | 0.0708 | 0.821 | 0.922 | 0.385
6 | NC1(C(=O)N[C@@H](CCO)c2ccc(Cl)cc2)CCN(c2ncnc3[nH]ccc23)CC1 [Capivasertib] + C[C@@H]1COCCN1C2=NC(=NC(=C2)C3(CC3)[S@](=N)(=O)C)C4=C5C=CNC5=NC=C4 [AZD6738] (first compound max 10 µM, 7x7, partner max 10 µM) | -0.0398 | -0.0179 | -0.0938 | -0.0526 | 0.0105 | -0.004 | 0.0138 | -0.0591 | 0.0049 | -0.0158 | -0.0287 | -0.0414 | -0.0883 | -0.0413 | -0.0946 | -0.0277 | -0.0163 | 0.482 | 0.859 | 0.44
7 | CN(CCO)CC[C@H](CSc1ccccc1)Nc1ccc(S(=O)(=O)NC(=O)c2ccc(N3CCC([C@@H](O)c4ccccc4-c4ccc(Cl)cc4)CC3)cc2)cc1S(=O)(=O)C(F)(F)F [AZD4320] + CCN(CCO)CCCOc1ccc2c(Nc3cc(CC(=O)Nc4cccc(F)c4)[nH]n3)ncnc2c1 [AZD2811] (first compound max 1 µM, 7x7, partner max 1 µM) | -0.0659 | 0.0003 | 0.0664 | -0.003 | 0.149 | 0.003 | -0.0204 | 0.158 | 0.0443 | 0.0411 | -0.0182 | -0.149 | -0.0087 | 0.014 | -0.0758 | 0.0868 | 0.0193 | 0.177 | 0.851 | 0.154
8 | CC1(C)CCC(CN2CCN(c3ccc(C(=O)NS(=O)(=O)c4ccc(NCC5CCOCC5)c([N+](=O)[O-])c4)c(Oc4cnc5[nH]ccc5c4)c3)CC2)=C(c2ccc(Cl)cc2)C1 [Venetoclax] + C1CN(CCC1(C(=O)N[C@@H](CCO)C2=CC=C(C=C2)Cl)N)C3=NC=NC4=C3C=CN4 [Capivasertib] (first compound max 1 µM, 7x7, partner max 3 µM) | -0.0442 | -0.026 | -0.0541 | -0.0333 | 0.0021 | 0.0442 | -0.0448 | 0.0083 | -0.0534 | -0.0391 | 0.0029 | -0.059 | -0.0006 | -0.0712 | -0.0656 | -0.0389 | -0.0202 | 0.533 | 0.558 | 0.287
9 | C[C@@H](c1ccc2nccn2c1)n1nnc2ncc(-c3cnn(C)c3)nc21 [Savolitinib] + CC1(C)CCC(CN2CCN(c3ccc(C(=O)NS(=O)(=O)c4ccc(NCC5CCOCC5)c([N+](=O)[O-])c4)c(Oc4cnc5[nH]ccc5c4)c3)CC2)=C(c2ccc(Cl)cc2)C1 [Venetoclax] (first compound max 1 µM, 7x7, partner max 1 µM) | -0.0854 | -0.0325 | -0.0163 | -0.0639 | -0.0189 | -0.025 | -0.0519 | 0.0032 | -0.108 | -0.1 | -0.0147 | -0.0378 | -0.0223 | -0.0464 | -0.0986 | -0.0546 | 0.0258 | 0.13 | 0.136 | 0.152
10 | CC1(C)CCC(CN2CCN(c3ccc(C(=O)NS(=O)(=O)c4ccc(NCC5CCOCC5)c([N+](=O)[O-])c4)c(Oc4cnc5[nH]ccc5c4)c3)CC2)=C(c2ccc(Cl)cc2)C1 [Venetoclax] + C=CCn1c(=O)c2cnc(Nc3ccc(N4CCN(C)CC4)cc3)nc2n1-c1cccc(C(C)(C)O)n1 [AZD1775] (first compound max 1 µM, partner max 1 µM) | -0.078 | -0.0013 | 0.0034 | -0.0281 | -0.0366 | -0.0307 | 0.0267 | 0.0168 | 0.0167 | -0.0696 | 0.0137 | -0.0366 | 0.0635 | 0.0151 | -0.0488 | -0.0489 | 0.0951 | 0.626 | 0.364 | 0.343
11 | Cc1cc2ncnn2cc1Nc1ncc2c(n1)n(C1CCOCC1)c(=O)n2C [AZD7648] + C=CCn1c(=O)c2cnc(Nc3ccc(N4CCN(C)CC4)cc3)nc2n1-c1cccc(C(C)(C)O)n1 [AZD1775] (first compound max 10 µM, partner max 1 µM) | -0.0474 | -0.0497 | -0.0024 | 0.0055 | 0.0065 | -0.0114 | -0.0007 | -0.0585 | -0.0515 | -0.0218 | -0.0547 | -0.0718 | -0.0082 | -0.0402 | -0.0429 | 0.0177 | 0.0498 | 0.397 | 0.483 | 0.357
12 | NC1(C(=O)N[C@@H](CCO)c2ccc(Cl)cc2)CCN(c2ncnc3[nH]ccc23)CC1 [Capivasertib] + Cn1cnc2c(F)c(Nc3ccc(Br)cc3Cl)c(C(=O)NOCCO)cc21 [Selumetinib] (first compound max 10 µM, 7x7, partner max 10 µM) | -0.0412 | -0.0249 | -0.0114 | -0.0375 | 0.0405 | 0.0362 | -0.0258 | -0.0027 | -0.051 | -0.0213 | -0.0161 | 0.0052 | 0.0222 | -0.0051 | 0.0147 | 0.0211 | 0.0563 | 0.397 | 0.805 | 0.623

Reference: the supplement of paper PMC11061612
